Reference: patent US10899739B2, “Macrophage migration inhibitory factor inhibitors, and methods of making and using same” (YALE UNIVERSITY, priority 2017, dated 2021)
In brackets after ≈: the same amount, converted by molar mass. Several values for one entry are separate records, joined by “and”; a condition that tells them apart may be missing. Equal entries are not always repeated. Where two headings read alike, the source gives them in different places.

Columns and labels:
[1] = shake-flask; data for previously reported analogs of 1 and 2; cited from earlier work
MIF [2] = target: T1, MIF (Homo sapiens, UniProt P14174); test: MIF tautomerase inhibition assay with 4-hydroxyphenylpyruvic acid (HPP) as substrate; assay type: biochemical
T1 construct: made in house
T1 sequence (P14174 2-115 limits assumed): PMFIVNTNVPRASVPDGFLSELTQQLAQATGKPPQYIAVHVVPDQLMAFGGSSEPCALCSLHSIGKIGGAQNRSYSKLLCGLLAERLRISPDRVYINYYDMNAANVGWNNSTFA

MIF [3] = target: T1, MIF; test: fluorescence polarization binding assay
[4] = aqueous solubility, shake-flask procedure; assay type: physicochemical; settings: aqueous buffer, thermodynamic from solid, Britton-Robinson buffer pH 6.5, read-out: Aqueous Solubility S
Method: For the assaying, inhibition constants Ki were determined as before using 4-hydroxyphenylpyruvic acid (HPP) as the substrate (Cisneros, et al., 2016, Bioorg. Med. Chem. Lett. 26:2764-2767). Inhibitory activity is monitored by measuring formation of the borate complex of the enol product at 305 nm using a Tecan Infinite F500 plate reader. Binding constants Kd were also obtained for the new compounds using a fluorescence polarization assay (Cisneros, et al., 2016, J. Am. Chem. Soc. 138:8630-8638). […] Saturated solutions in Britton-Robinson buffer (pH 6.5) are filtered (Acrodisc syringe, 0.2 μm pore) and analyzed by UV-vis spectroscopy (Agilent 8453).

OCCOc1ccc2nc(-c3cn(-c4ccc(O)cc4)nn3)ccc2c1 [Compound 1b]
Aqueous Solubility S [1]: 2.6 µg/mL

methyl 3-(4-hydroxyphenyl)-4,5-dihydroisoxazole-5-carboxylate [ISO-1]
Ki (MIF [2]; HPP substrate, new naphthyridinones and ISO-1, read-out: Experimental Inhibition Constants Ki): 30 µM and 30.1 µM | Ki (MIF [2]; spread of nine measurements, read-out: Ki, results of repeated measurements): 21 to 39 µM | Kd (MIF [3]; fluorescence polarization, new compounds and ISO-1, read-out: Binding Constants Kd): 23 µM and 23.1 µM | Kd (MIF [3]; spread of four measurements, read-out: Kd, results of repeated measurements): 20 to 30 µM

NCCOc1ccc2nc(-c3cn(-c4ccc(O)cc4)nn3)ccc2c1 [Compound 1c]
Aqueous Solubility S [1]: 3.7 µg/mL

O=C(O)Cn1ccc2ccc(-c3cn(-c4ccc(O)c(F)c4)nn3)nc2c1=O [Compound 4b, 2-(2-(1-(3-fluoro-4-hydroxyphenyl)-1H-1,2,3-triazol-4-yl)-8-oxo-1,7-naphthyridin-7(8H)-yl)acetic acid]
solubility [4]: 288 µg/mL (≈ 755 µM)

O=C(O)COc1ccc2nc(-c3cn(-c4ccc(O)c(F)c4)nn3)ccc2c1 [Compound 2c]
Aqueous Solubility S [1]: 37.0 µg/mL

O=C(O)COc1ccc2nc(-c3cn(-c4ccc(O)cc4)nn3)ccc2c1 [Compound 1f]
Aqueous Solubility S [1]: 365 µg/mL
